Results taken from patent publication US20140275539A1, “STABILIZATION OF RADIOIODINATED AND ASTATINATED PHARMACEUTICALS AND IMAGING AGENTS” (priority 2013, published 2014).

How the values were obtained:
[1] = more cytotoxic than ^123I-MIBG; cited from earlier work
[2] = DFT calculation of C—I bond dissociation energy (B3LYP/6-31G(d,p)/MIDI!, Gaussian 03); conditions: estimated from the DFT data, compound not covered by the calculations
Procedure: Density Functional Theory (DFT) calculations performed on a variety of model structures strongly support the novelty and uniqueness of this approach. […] Calculations were performed with the Gaussian 03 suite of programs.
Table 2 summarizes results of density functional theory calculations (B3LYP/6-31G(d,p)/MIDI!, thermal and zero point energy corrected) for compounds 1, 7, and 8, showing the dissimilar impact of ortho-chlorine substitution on the strength of the C—I bond. […] Chlorine substitution results in significant C—I bond weakening compared to iodobenzene.
Table 3 depicts the results of density functional theory calculations for compounds 1, 5, and 9-14 (B3LYP/SDD for astatobenzenes, B3LYP/6-31G(d,p)/MIDI! for the iodobenzenes, and B3LYP/6-31G(d,p) for 11-14; thermal and zero point energy corrected) showing how the effect of ortho fluorine substitution falls off as the bond strength of the C—X (where X=halogen) bond increases.
Table 4 depicts results of DFT calculations (B3LYP/6-31G(d,p)/MIDI! for compounds 15-22; thermal and zero point energy corrected) showing how the effect of ortho fluorine applies to heterocyclic systems.
Table 5 depicts results of density functional theory calculations (B3LYP/6-31G(d,p)/MIDI!; thermal and zero point energy corrected) for compounds 23-34, showing how the effect of ortho fluorine substituents applies to five-membered ring heterocycles. […]

| SMILES | cytotoxicity relative to ^123I-MIBG [1] | C—I bond energy increase over the derivative in which the fluorine substituents are replaced by hydrogen atoms [2] |
| --- | --- | --- |
| N=C(N)NCc1cccc([211At])c1 [^211At-MIBG] | approximately 1000 times |  |
| N[C@@H](Cc1cc(I)c(Oc2ccc(F)c(I)c2F)c(I)c1)C(=O)O |  | approximately 2.5 kcal/mol |
